US10308644B2, “Heterocyclic compounds as immunomodulators” (Incyte Corporation, priority 2016, dated 2019)

Biological target: PD-1/PD-L1 (Homo sapiens (Human), UniProt Q9NZQ7)
Assay: PD-1/PD-L1 Homogeneous Time-Resolved Fluorescence (HTRF) Binding Assay
Settings: recombinant human PD-1 (3 nM) and PD-L1 (10 nM), 25° C., PBS pH 7.4
Method in brief: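 Fc-tagged human PD-1 (25-167, 3 nM) and His-tagged PD-L1 (19-238, 10 nM) preincubated with inhibitor 40 min in PBS pH 7.4, 0.05% Tween-20, 0.1% BSA, 1% DMSO, 25 °C. Binding detected by HTRF (Eu anti-IgG/APC anti-His, 665/620 nm) after 60 min; IC50 from percent control activity.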

Chain of PD-1/PD-L1 (Q9NZQ7 19-238): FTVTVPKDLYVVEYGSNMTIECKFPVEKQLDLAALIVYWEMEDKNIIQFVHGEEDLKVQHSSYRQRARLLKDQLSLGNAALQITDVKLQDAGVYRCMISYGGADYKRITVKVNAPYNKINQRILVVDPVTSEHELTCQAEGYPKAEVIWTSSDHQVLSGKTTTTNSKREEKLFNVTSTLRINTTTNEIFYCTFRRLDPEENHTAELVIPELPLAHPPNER

Compound | IC50 [nM]
Cc1c(-c2nc3cc(CN4CC[C@@H](C(=O)O)C4)cc(C#N)c3o2)cccc1-c1cccc(-c2nc3c(s2)CN(C(=O)CNC(C)C)C3)c1C [Example 110, (R)-1-((7-cyano-2-(3′-(5-(2-(isopropylamino)acetyl)-5,6-dihydro-4H-pyrrolo[3,4-d]thiazol-2-yl)-2,2′-dimethylbiphenyl-3-yl)benzo[d]oxazol-5-yl)methyl)pyrrolidine-3-carboxylic acid] | ≤ 10
CCN(CCO)C1CCN(c2cccc(-c3cccc(-c4nc5cc(CN6CC[C@@H](C(=O)O)C6)cc(C#N)c5o4)c3C)c2Cl)CC1 [Example 48, (R)-1-((2-(2′-chloro-3′-(4-(ethyl(2-hydroxyethyl)amino)piperidin-1-yl)-2-methylbiphenyl-3-yl)-7-cyanobenzo[d]oxazol-5-yl)methyl)pyrrolidine-3-carboxylic acid] | ≤ 10
Cc1c(-c2nc3cc(CN4CC[C@H](C(=O)O)C4)cc(Cl)c3o2)cccc1-c1cccc(Nc2nccc3cc(CN4CC[C@H](O)C4)cnc23)c1Cl [Example 32, (S)-1-((7-chloro-2-(2′-chloro-3′-(3-(((S)-3-hydroxypyrrolidin-1-yl)methyl)-1,7-naphthyridin-8-ylamino)-2-methylbiphenyl-3-yl)benzo[d]oxazol-5-yl)methyl)pyrrolidine-3-carboxylic acid] | ≤ 10
Cc1c(Nc2nccc3cc(CNC[C@@H](C)O)cnc23)cccc1-c1cccc(-c2nc3cc(CN4CC[C@@](C)(C(=O)O)C4)cc(C#N)c3o2)c1C [Example 192, (R)-1-((7-cyano-2-(3′-(3-(((R)-2-hydroxypropylamino)methyl)-1,7-naphtyridin-8-ylamino)-2,2′-dimethylbiphenyl-3-yl)benzo[d]oxazol-5-yl)methyl)-3-methylpyrrolidine-3-carboxylic acid] | ≤ 10
Cc1c(-c2nc3cc(CN4CC5(CC(C(=O)O)C5)C4)cc(C#N)c3o2)cccc1-c1cccc(-c2nc3c(s2)CN(C(=O)CN2CC[C@H](O)C2)C3)c1C [Example 233, 2-((7-cyano-2-(3′-(5-(2-((S)-3-hydroxypyrrolidin-1-yl)acetyl)-5,6-dihydro-4H-pyrrolo[3,4-d]thiazol-2-yl)-2,2′-dimethylbiphenyl-3-yl)benzo[d]oxazol-5-yl)methyl)-2-azaspiro[3.3]heptane-6-carboxylic acid] | ≤ 10
Cc1c(Nc2nccc3cc(CNC[C@H](C)O)cnc23)cccc1-c1cccc(-c2nc3cc(CN4CCC(C(=O)O)CC4)cc(C#N)c3o2)c1C [Example 204, (S)-1-((7-cyano-2-(3′-(3-((2-hydroxypropylamino)methyl)-1,7-naphthyridin-8-ylamino)-2,2′-dimethylbiphenyl-3-yl)benzo[d]oxazol-5-yl)methyl)piperidine-4-carboxylic acid] | ≤ 10
Cc1c(-c2nc3c(s2)CNCC3)cccc1-c1cccc(-c2nc3cc(CN4CC[C@@H](C(=O)O)C4)cc(C#N)c3o2)c1Cl [Example 69, (R)-1-((2-(2-chloro-2′-methyl-3′-(4,5,6,7-tetrahydrothiazolo[5,4-c]pyridin-2-yl)-[1,1′-biphenyl]-3-yl)-7-cyanobenzo[d]oxazol-5-yl)methyl)pyrrolidine-3-carboxylic acid] | ≤ 10
Cc1c(Nc2nccc3cc(CN4CC[C@@H](O)C4)cnc23)cccc1-c1cccc(-c2nc3cc(CN[C@H]4CCC[C@H]4C(=O)O)cc(C#N)c3o2)c1C [Example 175, (1R,2S)-2-((7-cyano-2-(3′-(3-(((R)-3-hydroxypyrrolidin-1-yl)methyl)-1,7-naphthyridin-8-ylamino)-2,2′-dimethylbiphenyl-3-yl)benzo[d]oxazol-5-yl)methylamino) cyclopentanecarboxylic acid] | ≤ 10
COCC1(C(=O)O)CCN(Cc2cc(C#N)c3oc(-c4cccc(-c5cccc(Nc6nccc7cc(CN8CC[C@@H](O)C8)cnc67)c5C)c4C)nc3c2)C1 (stereo partly drawn) [Example 185, 1-((7-cyano-2-(3′-(3-(((R)-3-hydroxypyrrolidin-1-yl)methyl)-1,7-naphthyridin-8-ylamino)-2,2′-dimethylbiphenyl-3-yl)benzo[d]oxazol-5-yl)methyl)-3-(methoxymethyl)pyrrolidine-3-carboxylic acid] | ≤ 10
CCN1CCc2c(nc(C(=O)Nc3cccc(-c4cccc(-c5nc6cc(CN7CC[C@H](C(=O)O)C7)cc(C#N)c6o5)c4C)c3C)n2C)C1 [Example 37, (S)-1-((7-cyano-2-(3′-(5-ethyl-1-methyl-4,5,6,7-tetrahydro-1H-imidazo[4,5-c]pyridine-2-carboxamido)-2,2′-dimethylbiphenyl-3-yl)benzo[d]oxazol-5-yl)methyl)pyrrolidine-3-carboxylic acid] | ≤ 10
Cc1c(-c2nc3c(o2)CN(C(=O)CN2CCC(O)CC2)C3)cccc1-c1cccc(-c2nc3cc(CN4CC5CC4CC5C(=O)O)cc(C#N)c3o2)c1C (stereo not drawn) [Example 251, 2-((7-cyano-2-(3′-(5-(2-(4-hydroxypiperidin-1-yl)acetyl)-5,6-dihydro-4H-pyrrolo[3,4-d]oxazol-2-yl)-2,2′-dimethyl-[1,1′-biphenyl]-3-yl)benzo[d]oxazol-5-yl)methyl)-2-azabicyclo[2.2.1]heptane-5-carboxylic acid] | ≤ 10
Cc1c(-c2nc3cc(CN4CC[C@@](C)(C(=O)O)C4)cc(C#N)c3o2)cccc1-c1cccc(-c2nc3c(s2)CN(C(=O)CN[C@H]2C[C@@H](O)C2)C3)c1C [Example 228, (R)-1-((7-cyano-2-(3′-(5-(2-(cis-3-hydroxycyclobutylamino)acetyl)-5,6-dihydro-4H-pyrrolo[3,4-d]thiazol-2-yl)-2,2′-dimethylbiphenyl-3-yl)benzo[d]oxazol-5-yl)methyl)-3-methylpyrrolidine-3-carboxylic acid] | ≤ 10
Cc1c(Nc2nccc3cc(CN4CCCC4)cnc23)cccc1-c1cccc(-c2nc3cc(CN4CC[C@@](C)(C(=O)O)C4)cc(C#N)c3o2)c1C [Example 193, (R)-1-((7-cyano-2-(2,2′-dimethyl-3′-(3-(pyrrolidin-1-ylmethyl)-1,7-naphthyridin-8-ylamino)biphenyl-3-yl)benzo[d]oxazol-5-yl)methyl)-3-methylpyrrolidine-3-carboxylic acid] | ≤ 10
Cc1c(-c2nc3cc(CN4CC[C@@H](O)C4)cc(C#N)c3o2)cccc1-c1cccc(NC(=O)c2nc3c(n2C)CCN(CC24CCC(C(=O)O)(CC2)C4)C3)c1Cl [Example 267, (R)-4-((2-(2-chloro-3′-(7-cyano-5-((3-hydroxypyrrolidin-1-yl)methyl)benzo[d]oxazol-2-yl)-2′-methylbiphenyl-3-ylcarbamoyl)-1-methyl-6,7-dihydro-1H-imidazo[4,5-c]pyridin-5(4H)-yl)methyl)bicyclo[2.2.1]heptane-1-carboxylic acid] | ≤ 10
Cc1c(Nc2nccc3cc(CN4CC[C@@](C)(C(=O)O)C4)cnc23)cccc1-c1cccc(-c2nc3cc(CN[C@@H](C)CO)cc(C#N)c3o2)c1C [Example 215, (R)-1-((8-(3′-(7-cyano-5-(((S)-1-hydroxypropan-2-ylamino)methyl)benzo[d]oxazol-2-yl)-2,2′-dimethylbiphenyl-3-ylamino)-1,7-naphthyridin-3-yl)methyl)-3-methylpyrrolidine-3-carboxylic acid] | ≤ 10
Cc1c(-c2nc3cc(CN4CC[C@@H](C(=O)O)C4)cc(C#N)c3o2)cccc1-c1cccc(Nc2nccc3cc(C4CCCN4)cnc23)c1Cl (stereo partly drawn) [Example 97, (3R)-1-((2-(2′-chloro-2-methyl-3′-(3-(pyrrolidin-2-yl)-1,7-naphthyridin-8-ylamino)biphenyl-3-yl)-7-cyanobenzo[d]oxazol-5-yl)methyl)pyrrolidine-3-carboxylic acid] | ≤ 10
Cc1c(-c2nc3cc(CN4CC[C@@H](C(=O)O)C4)cc(C#N)c3o2)cccc1-c1cccc(Nc2nccc3cc(CN4CC[C@H](O)C4)cnc23)c1Cl [Example 30, (R)-1-((2-(2′-chloro-3′-(3-(((S)-3-hydroxypyrrolidin-1-yl)methyl)-1,7-naphthyridin-8-ylamino)-2-methylbiphenyl-3-yl)-7-cyanobenzo[d]oxazol-5-yl)methyl)pyrrolidine-3-carboxylic acid] | ≤ 10
Cc1c(-c2nc3c(o2)CN(C(=O)CN2CC4CC2CN4C)C3)cccc1-c1cccc(-c2nc3cc(CN4CC[C@@H](C(=O)O)C4)cc(C#N)c3o2)c1C (stereo partly drawn) [Example 255, (3R)-1-((7-cyano-2-(2,2′-dimethyl-3′-(5-(2-(5-methyl-2,5-diazabicyclo[2.2.1]heptan-2-yl)acetyl)-5,6-dihydro-4H-pyrrolo[3,4-d]oxazol-2-yl)biphenyl-3-yl)benzo[d]oxazol-5-yl)methyl)pyrrolidine-3-carboxylic acid] | ≤ 10
Cc1c(NC(=O)c2nc3c(n2C)CCN(C)C3)cccc1-c1cccc(-c2nc3cc(CN4CC[C@H](C(=O)O)C4)cc(C#N)c3o2)c1C [Example 36, (S)-1-((7-cyano-2-(3′-(1,5-dimethyl-4,5,6,7-tetrahydro-1H-imidazo[4,5-c]pyridine-2-carboxamido)-2,2′-dimethylbiphenyl-3-yl)benzo[d]oxazol-5-yl)methyl)pyrrolidine-3-carboxylic acid] | ≤ 10
Cc1c(Nc2nccc3cc(CN4CC[C@@H](O)C4)cnc23)cccc1-c1cccc(-c2nc3cc(CN4CC5CC4CC5C(=O)O)cc(C#N)c3o2)c1C (stereo partly drawn) [Example 176, 2-((7-cyano-2-(3′-(3-(((R)-3-hydroxypyrrolidin-1-yl)methyl)-1,7-naphthyridin-8-ylamino)-2,2′-dimethylbiphenyl-3-yl)benzo[d]oxazol-5-yl)methyl)-2-aza bicyclo[2.2.1]heptane-5-carboxylic acid] | ≤ 10
Cc1c(-c2nc3cc(CN4CC5CC4CC5O)cc(C#N)c3o2)cccc1-c1cccc(NC(=O)c2nc3c(n2C)CCN(CC2CCC(C(=O)O)CC2)C3)c1Cl (stereo not drawn) [Example 270, trans-4-((2-(2-chloro-3′-(7-cyano-5-((5-hydroxy-2-azabicyclo[2.2.1]heptan-2-yl)methyl)benzo[d]oxazol-2-yl)-2′-methylbiphenyl-3-ylcarbamoyl)-1-methyl-6,7-dihydro-1H-imidazo[4,5-c]pyridin-5(4H)-yl)methyl)cyclohexanecarboxylic acid] | ≤ 10
